{"source": "paper PMC4982760", "about": "“Small-molecule inhibitors identify the RAD52-ssDNA interaction as critical for recovery from replication stress and for survival of BRCA2 deficient cells” (eLife, 2016)", "key": {"[1]": {"biological_target": "T1, RAD52-ssDNA interaction (Homo sapiens, UniProt P43351)", "T1 construct": "made in house", "T1 sequence (P43351 1-418)": "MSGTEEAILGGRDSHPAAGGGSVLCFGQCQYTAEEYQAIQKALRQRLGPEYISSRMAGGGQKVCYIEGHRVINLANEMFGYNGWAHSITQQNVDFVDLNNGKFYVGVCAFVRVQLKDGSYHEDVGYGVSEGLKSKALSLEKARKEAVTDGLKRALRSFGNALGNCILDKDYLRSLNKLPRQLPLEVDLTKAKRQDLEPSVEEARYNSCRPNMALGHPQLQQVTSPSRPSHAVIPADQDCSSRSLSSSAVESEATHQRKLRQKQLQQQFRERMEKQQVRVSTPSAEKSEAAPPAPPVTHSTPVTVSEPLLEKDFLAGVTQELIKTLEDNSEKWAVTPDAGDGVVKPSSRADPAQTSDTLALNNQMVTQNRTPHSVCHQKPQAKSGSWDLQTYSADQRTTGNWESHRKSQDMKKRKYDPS", "assay": "FRET-based ssDNA binding and wrapping assay (RAD52-Cy3-dT30-Cy5 complex)", "settings": "1 nM Cy3-dT30-Cy5, 8 nM RAD52, 25°C; read-out: IC50 (DNA binding), ssDNA", "procedure": "We titrated increasing amounts of each compound into a cuvette containing preformed stoichiometric RAD52-Cy3-dT30-Cy5 complexes (1 nM Cy3-dT30-Cy5 and 8 nM RAD52). […] At each concentration of the compound, the FRET signal was adjusted for the change in Cy3 and Cy5 fluorescence in the presence of the compound, but in the absence of protein.\nFRET-based ssDNA binding, dsDNA binding, and annealing assays were carried out as previously described ([Grimme et al., 2010]; [Grimme and Spies, 2011]) using Cary Eclipse spectrofluorimeter (Varian) at 25°C in buffer containing 30 mM Tris-Acetate pH7.5, 1 mM DTT, and 0.1 mg/mL BSA. Cy3 dye was excited at 530 nm and its emission was monitored at 565 nm. Emission of Cy5 acceptor fluorophore excited through the energy transfer from Cy3 donor is monitored at 660 nm simultaneously with emission of Cy3 dye. Both the excitation and the emission slit widths were set to 10 nm.\nAll experiments were performed in triplicates, and the data are shown as averages and standard deviations for three independent measurements. To remove possible experimental artifacts associated with chromogenic or fluorogenic compounds, as well as with the compounds that may quench or enhance Cy3 or Cy5 fluorescence, we also performed control titrations whereby we titrated each compound into 1 nM Cy3-dT30-Cy5 in the absence of RAD52. For each compound concentration we subtracted the difference in the FRET signal in the presence and absence of the compound from the respective FRET signal in the presence of RAD52. The FRET signal corrected for the compound fluorescence was calculated using the equation: FRETapp=4.2∗ICy5/4.2∗ICy5+ 1.7∗ICy3\nas previously described ([Grimme et al., 2010]; [Grimme and Spies, 2011]) and plotted as a function of compound concentration and fitted to the following inhibition model” FRET([small molecule])=FRET0−FRETmin/1+10^(LogIC50−Log([small molecule])∗HillSlope),\nwhere FRET0 is the initial FRET value of the RAD52-ssDNA complex in the absence of the compound and FRETmin is the FRET value at complete inhibition. FRET values were calculated as an average of three or more independent annealing reactions plotted against the concentration of the compound. Inhibition of the RAD52-dsDNA interaction was assayed in a similar experiments, except the stoichiometric complexes containing 1 nM molecules of Cy3-Oligo28-Cy5 duplex DNA and 10 nM RAD52."}, "[2]": {"biological_target": "T2, RAD52-RPA-Cy3-dT30-Cy5 complex (Homo sapiens, UniProt P43351)", "T2 construct": "made in house", "T2 sequence (P27694 whole entry partner, one chain of several)": "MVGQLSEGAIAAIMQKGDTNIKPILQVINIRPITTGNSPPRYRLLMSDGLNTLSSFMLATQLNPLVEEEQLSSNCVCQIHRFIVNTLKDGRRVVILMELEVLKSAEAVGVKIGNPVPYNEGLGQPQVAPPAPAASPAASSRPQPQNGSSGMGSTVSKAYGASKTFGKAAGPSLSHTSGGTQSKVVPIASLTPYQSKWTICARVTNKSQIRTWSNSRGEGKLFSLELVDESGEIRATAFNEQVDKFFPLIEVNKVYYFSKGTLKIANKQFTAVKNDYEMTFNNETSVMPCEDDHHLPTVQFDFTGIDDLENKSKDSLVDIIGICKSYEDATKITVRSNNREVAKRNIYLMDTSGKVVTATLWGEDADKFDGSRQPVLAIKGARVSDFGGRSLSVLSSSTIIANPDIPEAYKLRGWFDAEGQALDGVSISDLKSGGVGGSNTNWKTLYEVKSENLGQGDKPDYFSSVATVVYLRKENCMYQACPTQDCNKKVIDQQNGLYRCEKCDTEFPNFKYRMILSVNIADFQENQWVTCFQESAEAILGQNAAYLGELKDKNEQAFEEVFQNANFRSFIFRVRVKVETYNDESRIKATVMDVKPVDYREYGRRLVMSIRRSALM", "T2 sequence (P15927 whole entry partner, one chain of several)": "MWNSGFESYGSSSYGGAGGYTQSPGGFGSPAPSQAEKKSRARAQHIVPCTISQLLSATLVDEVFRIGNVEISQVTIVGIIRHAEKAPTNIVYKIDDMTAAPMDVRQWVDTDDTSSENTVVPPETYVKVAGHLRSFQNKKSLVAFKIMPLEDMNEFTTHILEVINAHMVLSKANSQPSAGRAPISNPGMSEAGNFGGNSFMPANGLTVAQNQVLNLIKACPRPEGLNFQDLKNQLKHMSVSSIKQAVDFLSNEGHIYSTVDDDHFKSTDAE", "T2 sequence (P35244 whole entry partner, one chain of several)": "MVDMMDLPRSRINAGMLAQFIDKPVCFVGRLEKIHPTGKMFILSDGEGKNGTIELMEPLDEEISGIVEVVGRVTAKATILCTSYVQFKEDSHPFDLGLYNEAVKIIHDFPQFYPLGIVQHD", "assay": "FRET-based RAD52 binding/wrapping of RPA-coated ssDNA", "text": "The RPA-ssDNA complex is a physiologically relevant substrate for the RAD52-mediated strand annealing. […] RPA binds ssDNA with high affinity and extends the ssDNA to its contour length.\n(§1) In all experiments, the FRET values for each data point were corrected for the effects of the compounds on the respective substrate in the absence of RAD52."}, "[3]": {"biological_target": "T3, RAD52-dsDNA interaction (Homo sapiens, UniProt P43351)", "T3 construct": "made in house", "T3 sequence (P43351 1-418)": "T1 sequence (P43351 1-418)", "assay": "FRET-based RAD52-dsDNA binding assay", "settings": "1 nM dsDNA, 10 nM RAD52"}, "[4]": {"biological_target": "T4, RAD52 (Homo sapiens, UniProt P43351)", "T4 construct": "made in house", "T4 sequence (P43351 1-418)": "T1 sequence (P43351 1-418)", "assay": "WaterLOGSY NMR binding to RAD52", "settings": "20-40 μM compound, 3.3 μM RAD52", "text": "(§2) To confirm that the selected compounds bind RAD52, we employed water-ligand observation with gradient spectroscopy (WaterLOGSY), an NMR technique, which is based on transfer of magnetization from bulk water to the protein-bound compound of interest ([Dalvit et al., 2001], [2000]). In WaterLOGSY spectrum, if a compound binds to a protein, the compound will receive negative nuclear Overhauser effects (NOEs) due to the slow tumbling of the protein-compound complex, leading to a positive WaterLOGSY peak. […] Similarly, the binding of ‘6’to RAD52 is evident from the positive WaterLOGSY peaks that are clearly detected for this compound (Figure 3a).\n(§3) Compound binding to RAD52 and RPA proteins was analyzed using water-ligand observation with gradient spectroscopy (WaterLOGSY) NMR experiments ([Dalvit et al., 2001], [2000]). The WaterLOGSY spectra of compounds in the presence of RAD52 or RPA were acquired using a water NOE mixing time of 1 s and a T2 relaxation filter of 50 ms just before data acquisition to suppress the broad signals derived from protein. The protein buffer used in the experiments contains 10 mM Tris-d11, 75 mM KCl, 0.25 mM EDTA, pH 7.5, and 10% D20. All NMR data were acquired on a Bruker Avance II 800 MHz NMR spectrometer equipped with a sensitive cryoprobe and recorded at 25°C. The ^1H chemical shifts were referenced to 2,2-dimethyl-2-silapentane-5-sulfonate (DSS). NMR spectra were processed using NMR Pipe ([Delaglio et al., 1995]) and analysed using NMR View ([Johnson and Blevins, 1994])."}, "[5]": {"biological_target": "T5, RPA (Homo sapiens, UniProt P15927+P27694+P35244)", "T5 construct": "made in house", "T5 sequence (P27694 whole entry)": "as the sequence (P27694 whole entry partner, one chain of several) above", "T5 sequence (P15927 whole entry)": "as the sequence (P15927 whole entry partner, one chain of several) above", "T5 sequence (P35244 whole entry)": "as the sequence (P35244 whole entry partner, one chain of several) above", "assay": "WaterLOGSY NMR binding to RPA", "settings": "20-40 μM compound, 3.3 μM RPA", "text": "as §2, §3"}, "[6]": {"biological_target": "T6, RPA-ssDNA interaction (Homo sapiens, UniProt P15927+P27694+P35244)", "T6 construct": "made in house", "T6 sequence (P27694 whole entry)": "as the sequence (P27694 whole entry partner, one chain of several) above", "T6 sequence (P15927 whole entry)": "as the sequence (P15927 whole entry partner, one chain of several) above", "T6 sequence (P35244 whole entry)": "as the sequence (P35244 whole entry partner, one chain of several) above", "assay": "FRET titration of the RPA-Cy3-dT30-Cy5 complex", "assay_type": "binding", "settings": "range of tested concentrations", "text": "In the cell, ssDNA is typically found in complex with Replication protein A (RPA), the major eukaryotic ssDNA-binding protein essential for DNA replication, repair and recombination ([Wold, 1997]; [Oakley and Patrick, 2010]; [Chen and Wold, 2014]). The RPA-ssDNA complex is a physiologically relevant substrate for the RAD52-mediated strand annealing. […] RPA binds ssDNA with high affinity and extends the ssDNA to its contour length. In our assays such an extension manifests as a distinct FRET state of ~0.3, which is readily distinguished from a FRET state of ~0.48 of free Cy3-dT30-Cy5 ssDNA, as well as ~0.63 FRET of the stoichiometric ssDNA-RPA-RAD52 complex (see Figure 2—figure supplement 1 and ([Grimme and Spies, 2011]) for details). […] Both, however, inhibited the RAD52 binding to and wrapping of RPA-coated ssDNA with IC50 values identical to those determined without RPA (Figure 2e and Figure 3e).\nas §1"}}}
{"smiles": "O=C(O[C@@H]1O[C@@H]2COC(=O)c3cc(O)c(O)c(O)c3-c3c(cc(O)c(O)c3O)C(=O)O[C@H]([C@H]1O)[C@@H]2O)c1cc(O)c(O)c(O)c1", "note": "[NP-004255, corilagin]", "values": [{"measurement": "IC50", "setting": "[1]", "result": "1500 ± 200", "unit": "nM"}, {"measurement": "IC50", "setting": "[2]", "result": "500 ± 100", "unit": "nM"}, {"measurement": "effect on the RAD52-dsDNA interaction", "setting": "[3]", "result": "had no effect on the RAD52-dsDNA interaction"}, {"measurement": "binding to RAD52 (WaterLOGSY)", "setting": "[4]", "result": "physically interacts with RAD52"}, {"measurement": "binding to RPA (WaterLOGSY)", "setting": "[5]", "result": "also bound RPA"}, {"measurement": "effect on the RPA-ssDNA interaction", "setting": "[6]", "result": "did not affect the RPA-ssDNA complex"}]}
